From article PMC7346179, “Fe Porphyrin-Based SOD Mimic and Redox-Active Compound, (OH)FeTnHex-2-PyP^4+, in a Rodent Ischemic Stroke (MCAO) Model: Efficacy and Pharmacokinetics as Compared to Its Mn Analogue, (H2O)MnTnHex-2-PyP^5+” (Antioxidants, 2020)
Several values for one entry are separate records, joined by “and”; a condition that tells them apart may be missing. Equal entries are not always repeated.

What was measured:
[1] = 7-day PK study in healthy rats; type: in vivo; conditions: healthy rats
Method: Samples were prepared as described in [10] with modifications to accommodate the small tissue sizes and enhance the detection sensitivity. Quantitative liquid chromatography electrospray-ionization tandem mass spectrometry (LCMS/MS) analysis was performed on a Shimadzu 20A series HPLC (LC)-Applied Biosystems/MDS Sciex API 3200 QTrap or API 4000 QTrap tandem-mass spectrometer (MS/MS) as described earlier. The use of heptafluorobutyric acid (HFBA) mobile phase modifier as an ion-pairing agent increases the overall lipophilicity and volatility, which increases the retention and ionization efficiency of the analytes, affording an abundance of HFBA-associated ions. […] (OH)FeTnBuOE-2-PyP^4+ was prepared as described for other Fe(III) N-alkylpyridylporphyrins and analogous (H2O)MnTnBuOE-2-PyP^5+ [13, 16]. The solvents employed were: A = 95:5 H2O:MeCN (0.1% HFBA); B = MeCN (0.1% HFBA). […] With the chosen solvent system, all four atropoisomers collapsed into a single peak, enhancing the sensitivity of the method to as low as 0.5 nM (nanomoles per L of tissue homogenate). Analyses were performed using a Phenomenex Luna C18 guard cartridge (ID × L, 2 × 4 mm) only. […] Their structures are also shown. […] The response was calculated as the ratio between the standard peak area and the internal standard peak area. We conducted a 7-day rat PK study under conditions identical to those that afforded the therapeutic efficacy of MnTnHex-2-PyP^5+ in an earlier study. […] Afterwards, blood/plasma samples were collected before injection and at 2 h after 24 h-injections (every second injection). Liver and brains were taken for analysis 12 h after the last injection. Three rats were used per compound. After the single (first) SC injection, we obtained a prototypical PK profile observed in the case of all Mn(III) ortho […] In contrast, although similarly absorbed after SC injection, the […] Our understanding is that the “elimination” process is actually a fast distribution/retention into/by the liver, kidney, and spleen, a multi-compartmental process responsible for early decay of the plasma concentration, observed for all Mn porphyrin analogs investigated.

mice [2] = conditions: mice, 5 mg/kg IP injection; cited from earlier work
[3] = cited from earlier work
rat MCAO stroke model = assay: 7-day rat MCAO efficacy study; type: in vivo, rats; conditions: 0.225 mg/kg twice per day 7 days
Method: The 7-day rat MCAO study was done as described in [9]. The 250–275 g Wistar rats were used as another species is a requirement for preclinical stroke research. The duration of the right MCAO was 90 min. […] The first dose was given IV slowly via the […] at 5 min after ischemia/reperfusion. The following doses were given SC. At day 7 post-injury, a person blinded to the treatment groups assessed the neurological deficit and then brains were harvested for infarct volume measurements.

[4] = mouse, in vivo; cited from earlier work
[5] = in vivo; cited from earlier work
[6] = system: rat middle cerebral artery occlusion (MCAO) stroke model; conditions: cited from earlier work
[7] = 2-h PK study in rats that underwent MCAO; type: in vivo; conditions: rats after 90-min MCAO, 0.225 mg/kg IV + 0.225 mg/kg SC, 2 h after reperfusion
Method: Samples were prepared as described in [10] with modifications to accommodate the small tissue sizes and enhance the detection sensitivity. Quantitative liquid chromatography electrospray-ionization tandem mass spectrometry (LCMS/MS) analysis was performed on a Shimadzu 20A series HPLC (LC)-Applied Biosystems/MDS Sciex API 3200 QTrap or API 4000 QTrap tandem-mass spectrometer (MS/MS) as described earlier. The use of heptafluorobutyric acid (HFBA) mobile phase modifier as an ion-pairing agent increases the overall lipophilicity and volatility, which increases the retention and ionization efficiency of the analytes, affording an abundance of HFBA-associated ions. […] (OH)FeTnBuOE-2-PyP^4+ was prepared as described for other Fe(III) N-alkylpyridylporphyrins and analogous (H2O)MnTnBuOE-2-PyP^5+ [13, 16]. The solvents employed were: A = 95:5 H2O:MeCN (0.1% HFBA); B = MeCN (0.1% HFBA). […] With the chosen solvent system, all four atropoisomers collapsed into a single peak, enhancing the sensitivity of the method to as low as 0.5 nM (nanomoles per L of tissue homogenate). Analyses were performed using a Phenomenex Luna C18 guard cartridge (ID × L, 2 × 4 mm) only. […] Their structures are also shown. […] The response was calculated as the ratio between the standard peak area and the internal standard peak area. Another possible cause for the failure of therapeutics in stroke may be their slow accumulation in the brain, i.e., not being there in time to prevent the burst of reactive species and rapid activation of transcription factors, which perpetuate oxidative stress. We therefore conducted short-term 2-h PK to evaluate how fast post-MCAO our drug gets into the brain. Three rats per compound were subjected to 90 min of transient right MCAO as reported. The first dose of 0.225 mg/kg was given IV via the […] at 5 min after ischemia/reperfusion. The second dose of 0.225 mg/kg was given SC at 30 min after reperfusion. Blood was collected at 2 h and plasma harvested. Rats were perfused with heparin saline (2000 IU/500 mL) until no reddish fluid came out from the right atrium. Then, the liver, and left and right brain were collected and placed on dry ice and stored at -20 °C. Plasma, liver, and brain were analyzed by LCMS/MS.

mice [8] = conditions: mouse, in vivo, ip, 10 mg/kg; cited from earlier work
[9] = SC 0.225 mg/kg BID 7 days, 12 h after last injection
[10] = SC 0.225 mg/kg BID 7 days, WinNonlin simulation

SMILES: CCCCCC[n+]1ccccc1-c1c2nc(c(-c3cccc[n+]3CCCCCC)c3ccc([n-]3)c(-c3cccc[n+]3CCCCCC)c3nc(c(-c4cccc[n+]4CCCCCC)c4ccc1[n-]4)C=C3)C=C2.[Mn+3] [MnHex, Mn(III) meso-tetrakis(N-n-hexylpyridinium-2-yl)porphyrin]
- brain level at end of 7-day treatment ([1]; SC 0.225 mg/kg BID 7 days): 25 nM
- brain concentration at end of 7-day treatment [1, 9]: 25 nM
- end-of-treatment 7-day liver tissue level [1, 9]: 21 µM
- average plasma concentration (Caver) [1, 10]: 76 nM
- plasma AUC [1, 10]: 11.5 µM·h
- Cmax ([1]; SC 0.225 mg/kg BID 7 days, WinNonlin simulation, read-out: Cmax at steady state, plasma): 220 nM
- elimination from plasma after single (first) SC injection ([1]; SC 0.225 mg/kg, first 12 h): eliminated from plasma within 12 h
- plasma half-life ([1]; SC 0.225 mg/kg, estimated from simulation, 0.225 mg/kg): 1.4 h and ~ 1.4 h
- toxicity / death of mice (mice [2]): mice died
- log kcat(O2^•−), log of rate constant for catalysis of O2^•− dismutation [3]: 7.48
- p, cortex infarct volume vs vehicle (rat MCAO stroke model): 0.046
- p, neuroscore vs vehicle (rat MCAO stroke model): 0.016
- p, subcortex infarct volume vs vehicle (rat MCAO stroke model): 0.049
- p, total infarct volume vs vehicle (rat MCAO stroke model): 0.029
- neurological deficit (neuroscore and infarct volume) (rat MCAO stroke model; first dose IV, then SC): significantly improved
- accumulation in mitochondria relative to cytosol [4]: 3.6 fold
- blood–brain barrier crossing [5]: crosses the BBB
- infarct size in earlier 7-day MCAO study [6]: significantly reduced the infarct size
- neurologic outcome, infarct size and inflammation ([6]; rat MCAO stroke model and subarachnoid hemorrhage): improved the neurologic outcome and decreased infarct size and inflammation
- brain level in earlier 7-day MCAO study ([6]; rat, in vivo): ~ 30 nM
- level in injured (right) brain hemisphere [7]: ~ 35 nM
- blood pressure drop (mice [8]): does cause a blood pressure drop
